Consider ten compounds from PubChem BioAssay (NCI).

Common to all, as to experiment: NCI tumour cell line growth inhibition, 48 h
The test system of test [1] is BT-549 breast.
Test [2] relates to HL-60(TB) leukemia.
In test [3] the test system is K-562 leukemia.
Test [4] concerns LOX IMVI melanoma.
The test system of test [5] is M14 melanoma.
Test [6] concerns NCI-H23 lung.
The subject of test [7] is PC-3 prostate.
Test [8] deals with SF-539 CNS.
The subject of test [9] is SK-MEL-2 melanoma.
The test system of test [10] is UACC-257 melanoma.

Structures are written as SMILES.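 Step 1: Grow cells in 96-well plates. Step 2: Expose to compound for 48 hours at 5 concentrations. Step 3: Interpolate endpoints linearly; if unreached, use highest concentration. The concentration for 50% growth inhibition is given as GI50. TGI: concentration producing complete growth inhibition.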 Bounds are passed on as bounds.

In the case of `COC(=O)CCC(=O)C(=O)OC`, the GI50 in [1] was 26300 µM; in [2] it was 23600 µM; in test [3] it was 33500 µM; in [4], 13300 µM; in test [5] it was 32300 µM; in test [6], 27400 µM. Moreover, the GI50 in [7] was 27800 µM; in test [8] it was 24500 µM; in test [9] it was 19700 µM; in test [10], 30800 µM. In addition, the TGI in [1] came to 96200 µM; in test [2] it was 61600 µM; in test [6] it was 95700 µM; in test [7] it was 84500 µM; in [9] it was 41400 µM.
In the case of `NC(=O)NNCc1ccccc1`, the TGI in test [1], in test [2], in test [3], in test [4], in test [5] and in test [6] was greater than 100 µM each time. Besides, the TGI in [7], in [8], in [9] and in test [10] was greater than 100 µM each time.
On to `O=C1c2ccccc2-c2c1c1ccccc1c(=O)n2CCCCNCCCn1c2c(c3ccccc3c1=O)C(=O)c1ccccc1-2`, for which the GI50 in [1] is 1.34 µM; in test [2] it was 8.19 µM; in test [3] it was 0.205 µM; in test [4], 0.0499 µM; in [5], 0.76 µM; in [6], 0.461 µM. The GI50 was 0.245 µM in test [7], 0.492 µM in test [8], 3.51 µM in test [9] and 3.23 µM in test [10]. Moreover, the TGI in test [1] amounted to 4.15 µM; in test [2] it was 23.3 µM; in test [3] it was 9.62 µM; in [4], 0.76 µM; in [5] it was 4.18 µM; in test [6] it was 2.53 µM. Also, the TGI stood at 1.05 µM in test [7], 2.07 µM in test [8], 15.2 µM in test [9] and 13.8 µM in [10].
With `COc1ccc(C2CC(c3cc(OC)c(OC)c(OC)c3)=NO2)cc1OCCCCOc1cc2c(cc1OC)C(=O)N1CCC[C@H]1C=N2` (stereo not given in full), the GI50 in test [1] is 1.23 µM; in test [2], 1.9 µM; in test [3], 1.26 µM; in [4] it was 1.47 µM; in test [5] it was 1.73 µM; in [6], 1.83 µM. Also, the GI50 in [7] is 0.585 µM; in test [8], 1.8 µM; in test [9] it was 2.03 µM; in test [10] it was 2.33 µM. The TGI was determined as 3.54 µM in test [1]; 4.54 µM in test [2]; 6.74 µM in test [3]; 2.84 µM in test [4]; 3.45 µM in test [5]; 3.5 µM in test [6]. The TGI was 3.04 µM in [7], 3.46 µM in test [8], 4.8 µM in test [9] and 4.96 µM in test [10].
As for `O=C(O)C/C(=C\c1ccco1)C(=O)O`, the TGI in [1], in test [2], in test [3], in [4], in [5] and in test [6] was greater than 100 µM each time. Besides, the TGI in test [7], in test [8], in [9] and in test [10] was greater than 100 µM in each case.
For `COc1cc2c(cc1O)CC[C@@H]1[C@@H]2CC[C@]2(C)[C@@H](NCCN(C)C)CC[C@@H]12`, the GI50 in [1] is 0.334 µM; in test [2], 0.173 µM; in test [3], 0.0886 µM; in test [4] it was 0.11 µM; in [5], 0.0822 µM; in test [6], 0.161 µM. For the same compound, the GI50 in test [7] is 0.188 µM; in [8], 0.083 µM; in [9], 0.127 µM; in [10], 0.114 µM. For the same compound, the TGI in test [1] was determined as 0.858 µM; in [2], 0.675 µM; in [3] it was 0.395 µM; in test [4], 0.405 µM; in test [5], 0.213 µM; in test [6], 0.636 µM. Also, the TGI stood at 0.599 µM in test [7], 0.264 µM in test [8], 0.517 µM in test [9] and 0.254 µM in test [10].
In the case of `CCN(CC)CCOCC[C@H]1CC[C@H]2[C@@H]3[C@H](C)Cc4cc(OS(N)(=O)=O)ccc4[C@H]3CC[C@]12C`, the GI50 in test [1] is 1.67 µM; in test [2] it was 1.64 µM; in test [3], 0.547 µM; in test [4], 1.33 µM; in [5], 1.26 µM; in [6] it was 1.06 µM. Moreover, the GI50 in test [7] is 1.57 µM; in test [8], 0.654 µM; in test [9] it was 2.32 µM; in [10] it was 1.74 µM. Further, the TGI was 3.99 µM in test [1]; 3.87 µM in [2]; 2.26 µM in [3]; 2.77 µM in [4]; 2.59 µM in test [5]; 2.92 µM in test [6]. Besides, the TGI in [7] turned out to be 4.48 µM; in [8] it was 1.87 µM; in test [9], 4.45 µM; in [10], 3.34 µM.
Take `F`: the GI50 in [1] is 3050 µM; in test [2] it was 2360 µM; in test [3], 3630 µM; in test [4] it was 2290 µM; in test [5] it was 2260 µM; in [6], 5260 µM. For the same compound, the GI50 is 3920 µM in test [7], 1770 µM in [8], 1440 µM in test [9] and 2160 µM in [10]. Further, the TGI in test [1] is greater than 6870 µM; in test [2], greater than 6870 µM; in test [3], greater than 6870 µM; in test [4], greater than 6870 µM; in [5], 5900 µM; in [6], greater than 6870 µM. Also, the TGI is greater than 6870 µM in test [7], 4620 µM in [8], 2890 µM in [9] and 4940 µM in test [10].
As for `Cc1cc2nc(C(C)C(=O)c3ccc(Cl)cc3)c(=O)[nH]c2cc1C` (stereo not given), the TGI in [1], in test [2], in [3], in test [4], in test [5] and in [6] was greater than 100 µM throughout. The TGI is greater than 100 µM in test [7], 93.1 µM in test [8], greater than 100 µM in [9] and greater than 100 µM in test [10].
With `Nc1c(C(=O)c2cccc(CCCN3CCOCC3)c2)cnn1-c1ccc(F)cc1`, the GI50 in [1], in test [2], in test [3], in [4], in test [5] and in test [6] was greater than 25 µM throughout. Also, the GI50 in test [7], in test [8], in test [9] and in test [10] was greater than 25 µM in each case. Moreover, the TGI in test [1], in test [2], in test [3], in test [4], in test [5] and in test [6] was greater than 25 µM each time. The TGI in [7], in [8], in [9] and in test [10] was greater than 25 µM in each case.
